Laboratory results: patent US20050267020A1, “Polypeptides derived from inducible hsp70 and pharmaceutical compositions containing the same” (priority 2001, published 2005)

Experiments:
[1] = test system: human CD8+ cells; test: Generation of CTL from human PBMC with peptide- or polyepitope-pulsed dendritic cells, intracellular IFN-γ staining; assay type: cell-based; conditions: CD8+ cells stimulated with peptide-loaded dendritic cells
Description: The three graphs entitled hCTL380, hCTL391 and hCTL393 represent respectively the testing of p380, p391 and p393-specific human CTLs. P391 and p393 specific CTLs were tested towards EBV-B cells, whereas p380 specific CTLs were tested towards T2 cells. The number of IFN-γ producing CD8+ cells for 10^5 CD8+ cells upon activation, indicated on the X-axis, was measured, as assessed by staining cells for CD8 and intracellular IFN-γ.
Polyepitope induced human CTL were tested for their capacity to respond to T2 cells loaded with p380, p391 or p393 or the irrelevant HIVpol589 peptides in intracellular IFN-γ staining. The X axis represents the number of IFNγ-producing CTL/10^5 CD8+ cells. On the Y axis, upper to lower bars represent the results obtained when cells were loaded respectively with irrelevant HIV pol589 peptides, or with p380, p391 or p393 peptides.
Generation of CTL from Human Peripheral Blood Mononuclear Cells (PBMC). Fresh PBMC collected from healthy donnors under informed consent were serologically typed for the studied HLA-class I molecule, and purified using standard Ficoll-Paque (Amersham Pharmacia Biotech AB). Dendritic cells (DC) were prepared by cultivating plastic adherent PBMC in the presence of 500 U/mL GM-CSF (R&D Systems Inc. MN) and 500 U/mL IL-4 (R&D Systems Inc. MN) for 7 days such as described in Keogh et al. (30).
DC were then maturated for 2 days with 2 μg/mL anti-CD40 antibody and 100 ng/mL Poly I:C (Sigma-Aldrich). […] Autologous CD8+ purified T-cells (CD8 MicroBeads, Miltneyi Biotec Inc. CA) were stimulated weekly with DC pulsed for two hours with peptide (10 μM) and irradiated at 35Gy at a T:DC ratio of 10:1 in culture medium (CM; RPMI 1640 supplemented with 10% human AB serum, […] L-glutamine and gentamycin). 1×10^3 U/mL IL-6 and SU/mL IL-12 (R&D Systems Inc. MN) were added during the first week of culture. 20 U/mL clinical grade IL-2 (Proleukin, Chiron Corp.) and 10 ng/mL IL-7 (R&D Systems Inc. MN) were added during the next two weeks of culture. 7 days after the last stimulation with DC, peptide specific IFN-γ secreting CD8+ T cells were magnetically sorted following encounter of the peptide presented by HLA-A*0201+ B-EBV cells (IFN-γ Secretion Assay, Miltenyi Biotec Inc. CA). The characterization of peptide-specific T cells was tested 7 days after the purification step.
Intracellular IFN-g Staining. 5×10^4 T cells were incubated with 10^5 stimulating peptide loaded EBV-B cells or with 10^5 tumor cells in the presence of 20 μg/ml brefeldin-A (Sigma, Oakville, Canada). Six hours later, they were washed, stained with r-phycoerythrin-conjugated anti-CD8 antibody (Caltag Laboratories, Burlingame, Calif.) in PBS for 25 min at 4° C., washed and fixed with 4% PFA. Then, cells were permeabilized with PBS 0.5% BSA 0.2% saponin (Sigma, Oakville, Canada), and stained with allophycocyanin-conjugated anti-IFNg mAb (PharMingen, Mississauga, Canada) for 25 min at 4° C. Cells were analyzed on FACSCalibur (Becton Dickinson, Mountain View, Calif.).

[2] = test system: HHD mice; test: Generation of CTL in HLA-A*0201 transgenic HHD mice (immunogenicity); assay type: in vivo, mouse
Description: Generation of CTL in HLA-transgenic mice. HLA-transgenic mice were injected subcutaneously at the base of the tail with 100 μg of peptide emulsified in incomplete Freund's adjuvant (IFA) in the presence of 140 μg of the I-A^b restricted HBVcore-derived T-helper epitope (128-140; sequence TPPAYRPPNAPIL). After 11 days, spleen cells (5×10^7 cells in 10 mL) were stimulated in vitro with peptide (10 μM). On day 6 of culture, the bulk responder populations were tested for specific cytotoxicity. Upon response, the CTL line was then weekly re-stimulated in vitro with 20×10^6 35Gy irradiated spleen cells in the presence of 1 to 0.1 μM peptide and 50 U/mL IL-2 (Proleukin, Chiron Corp.). Cytotoxicity was assayed 6 days after the last stimulation and TNF-α secretion 11-13 days after, with the addition of 50 U/mL IL-2 on day 7. HHD mice transgenic for HLA-A*0201 were used. B7B7 Kd mice and mice transgenic for HLA-A*0301 are used for the study of the HLA-B*0701 and HLA-A*0301 restricted peptides respectively.

## YLGYPVTNAV [HSP 134(10)]
[1]
  induction of specific human CTL: capable of stimulating specific human CTL
[2]
  induction of specific cytotoxic T cell immune response in HHD mice: capable of generating a specific cytotoxic T cell immune response

## LMGDKSENV [HSP 380]
[1]
  induction of specific human CTL: capable of stimulating specific human CTL
[2]
  induction of specific cytotoxic T cell immune response in HHD mice: capable of generating a specific cytotoxic T cell immune response

## LLLLDVAPL [HSP 391]
[1]
  induction of specific human CTL: capable of stimulating specific human CTL
[2]
  induction of specific cytotoxic T cell immune response in HHD mice: capable of generating a specific cytotoxic T cell immune response
